The test system of series [1] is PHKG2. Further details: method as in earlier work. Conditions: cited from earlier work.
In series [2] the test system is AAK1. Set-up: method as in earlier work. As to conditions: cited from earlier work.
The nature of series [3]: Plasma pharmacokinetics of high-dose intermittent sunitinib (LC-MS-MS, NONMEM). The series is classed as in vivo, human. Conditions: human, plasma, oral, Cmax plasma - Sunitinib concentration, individual patient. Here is the method:
Study pharmacokinetic assessment in plasma: Ethylenediaminetetraacetic acid (EDTA) blood was collected pretreatment and subsequently at multiple time points in all patients (0, 2, 4, 6, 8, 10, and 24 h post-dose on day 1 for both time schedules and thereafter at days 3, 8, 10, 15, 17, and 22 for the once weekly schedule and at days 3, 15, 17, and 29 for the once every 2 weeks schedule). All samples were centrifuged within 1 h after collection at 2000 g for 10 min (at 4 degrees Celsius (°C)), plasma was separated and stored at −80 °C until the day of analysis.
Since there is no evidence for the exact relationship between plasma and tumor concentrations, we chose to use the concentration–time data calculated by NONMEM for Cmax, the average concentration over time (Caverage) and the trough concentrations just before the next dose was administered (Ctrough) based on rich PK-data of each individual patient. […] Inter-occasion variability in bioavailability and absorption duration were allowed in the model. The control stream of the final model and the goodness-of-fit plots are supplied in the Supplementary Material (Supplementary Data S3). The developed model was used to derive the individual predictions for the Cmax, Caverage, and Ctrough. SUM concentrations were calculated.
Supplementary data S2 – Methods (Details)
samples; using a validated liquid chromatography–tandem mass spectrometry (LC-MS-MS).
The system consisted of an Acquity H‐Class UPLC system, coupled to a Xevo TQ‐S micro
tandem mass spectrometer. […]

For series [4] the following is noted: CAM-assay, cited from earlier work.

Like-named read-outs stand apart in the source and are kept apart here.

On to `CCN(CC)CCNC(=O)c1c(C)[nH]c(/C=C2\C(=O)Nc3ccc(F)cc32)c1C` [sunitinib], for which the figures for the IC50 in series [1] and in series [2] were […] and […], respectively. The Cmax in series [3] (200 mg, 200 mg O1W) was 239 ng/mL; in series [3] (600 mg, 600 mg O2W) it was 190 ng/mL. The “sunitinib tumor concentration, range” value is […] in series [4] (high-dose Q1W schedule) and […] in series [4] (standard daily schedule).

The record behind these values is publication PMC9775433 (Cancers, 2022).
